Measured values taken from ChEMBL document CHEMBL3352561, “Synthesis of natural and non-natural curcuminoids and their neuroprotective activity against glutamate-induced oxidative stress in HT-22 cells” (J Nat Prod, 2014).
Activity calls are given as the source filed them. No cut-off for these calls is given here.

Columns and labels:
[1] = (§1) Cytotoxicity against mouse HT22 cells assessed as cell viability at 1 to 25 uM after 24 hrs by MTT assay relative to control; format: cell-based, HT-22; details: HT22 cells, read-out: Activity
HT-22 [2] = assay: Neuroprotective activity against glutamate-induced neuronal cell death in mouse HT22 cells assessed as increase in cell viability at 1 to 25 uM after 24 hrs by MTT assay relative to control; format: functional, cell-based
[3] = Cytotoxicity against mouse HT22 cells assessed as cell viability at 25 uM after 24 hrs by MTT assay relative to control; format: cell-based, HT-22; details: read-out: Activity
[4] = Cytotoxicity against mouse HT22 cells assessed as cell viability at 10 uM after 24 hrs by MTT assay relative to control; format: cell-based, HT-22; details: read-out: Activity
HT-22 [5] = assay: Neuroprotective activity against glutamate-induced neuronal cell death in mouse HT22 cells assessed as increase in cell viability after 24 hrs by MTT assay relative to control; format: functional, cell-based
HT-22 [6] = assay: as §1; format: cell-based; details: ht-22, 24 h, 25 µM
HT-22 [7] = assay: Neuroprotective activity against glutamate-induced neuronal cell death in mouse HT22 cells assessed as increase in cell viability at 25 uM after 24 hrs by MTT assay relative to control; format: functional, cell-based
HT-22 [8] = assay: Neuroprotective activity against t-BuOOH-induced neuronal cell death in mouse HT22 cells assessed as increase in cell viability at 1 to 100 uM after 20 hrs by MTT assay relative to control; format: functional, cell-based
HT-22 [9] = assay: Neuroprotective activity against glutamate-induced neuronal cell death in mouse HT22 cells assessed as increase in cell viability at 10 uM after 24 hrs by MTT assay relative to control; format: functional
HT-22 [10] = assay: Neuroprotective activity against glutamate-induced neuronal cell death in mouse HT22 cells assessed as increase in cell viability at 5 uM after 24 hrs by MTT assay relative to control; format: functional
[11] = Cytotoxicity against mouse HT22 cells assessed as reduction in cell viability at 10 uM after 24 hrs by MTT assay relative to control; format: cell-based, HT-22; details: read-out: INH
[12] = Cytotoxicity against mouse HT22 cells assessed as reduction in cell viability at 25 uM after 24 hrs by MTT assay relative to control; format: cell-based, HT-22; details: read-out: INH
[13] = Cytotoxicity against mouse HT22 cells assessed as cell viability at 1 uM after 24 hrs by MTT assay relative to control; format: cell-based, HT-22; details: read-out: Activity
HT-22 [14] = assay: Neuroprotective activity against glutamate-induced neuronal cell death in mouse HT22 cells assessed as increase in cell viability at 10 to 25 uM after 24 hrs by MTT assay relative to control; format: functional, cell-based

Compound	Activity (HT-22 [2])	viability at 24 h, 10 µM [4] [%]	Activity (HT-22 [5])	also measured
CC(=O)/C=C/c1ccc(O)cc1	inactive	–	–	viability at 24 h, up to 25 µM [1]: 50%
O=C(/C=C/c1ccc(O)cc1)CCCCc1ccc(O)cc1	inactive	43	–	viability at 24 h, 25 µM [3]: 25%
O=C(CCCCc1ccc(O)cc1)CCc1ccc(O)cc1	–	43	–	viability at 24 h, 25 µM [3]: 25%
COc1cc(/C=C/C(=O)CCCCc2ccc(O)cc2)ccc1O	–	68	Dose-dependent effect	–
COc1cc(CCCCC(=O)/C=C/c2ccc(O)cc2)ccc1O	inactive	67	–	–
O=C(/C=C/c1ccc(O)cc1)CC(=O)/C=C/c1ccc(O)cc1 [BISDEMETHOXYCURCUMIN]	–	–	–	Activity (HT-22 [6]): Toxic
COc1cc(CCCCC(O)CCc2ccc(O)cc2)ccc1O (centres undefined)	inactive	74	–	–
COc1cc(CCCCC(O)CCc2ccc(O)c(OC)c2)ccc1O (centres undefined)	–	73	Dose-dependent effect	Activity (HT-22 [7]): Active
COc1cc(/C=C/C(=O)CCCCc2ccc(O)c(OC)c2)ccc1O	–	66	Dose-dependent effect	Activity (HT-22 [8]): inactive; Activity (HT-22 [9]): 62%; Activity (HT-22 [10]): 47%
O=C(/C=C/c1ccc(O)c(O)c1)CCCCc1ccc(O)c(O)c1	–	–	–	Activity (HT-22 [8]): Active; viability at 24 h, 25 µM [3]: 78%; Activity (HT-22 [9]): inactive; Activity (HT-22 [7]): Active
COc1cc(/C=C/C(O)=C/C(=O)/C=C/c2ccc(O)cc2)ccc1O [DEMETHOXYCURCUMIN]	inactive	–	–	Activity (HT-22 [6]): Toxic
O=C(/C=C/c1ccc(O)c(O)c1)CC(=O)/C=C/c1ccc(O)c(O)c1 [DIDEMETHYLCURCUMIN]	–	–	–	Activity (HT-22 [6]): Toxic
COc1cc(CCC(O)CCCCc2ccc(O)cc2)ccc1O (centres undefined)	–	75	Dose-dependent effect	Activity (HT-22 [7]): Active
COc1cc(CCCCC(=O)CCc2ccc(O)cc2)ccc1O	inactive	71	–	–
COc1cc(CCC(=O)CCCCc2ccc(O)cc2)ccc1O	–	–	Dose-dependent effect	Activity (HT-22 [7]): Active; viability at 24 h, up to 25 µM [1]: 37%
COc1cc(/C=C/C(C)=O)ccc1O	inactive	–	–	–
Oc1ccc(CCCCC(O)CCc2ccc(O)cc2)cc1 (racemic)	inactive	43	–	viability at 24 h, 25 µM [3]: 25%
COc1cc(CCCCC(=O)CCc2ccc(O)c(OC)c2)ccc1O	–	70	Dose-dependent effect	Activity (HT-22 [7]): Active
COc1cc(/C=C/C(=O)CC(=O)/C=C/c2ccc(O)c(OC)c2)ccc1O [CURCUMIN]	–	–	–	cytotoxicity at 24 h, 10 µM [11]: 18%; cytotoxicity at 24 h, 25 µM [12]: 36%
COc1ccc(CCCCC(=O)CCc2ccc(OC)c(OC)c2)cc1OC	–	–	–	viability at 24 h, 25 µM [3]: 43%; viability at 24 h, 1 µM [13]: 75%; Activity (HT-22 [14]): inactive
